The values below are quoted from earlier work in US5753436A, “Chemiluminescent energy transfer assays” (Tropix, Inc., priority 1995, dated 1998).

As a reminder, the Km is the concentration of substrate that gives half-maximal velocity.

The series deals with alkaline phosphatase.

In the case of `O=P(O)(O)Oc1ccc2nc(-c3nc4ccccc4s3)sc2c1` [AttoPhos], the Km was 30 µM. Also, the turnover number (2.40M DEA (diethanolamine) pH 9.0, 0.23 mM MgCl2, 0.005% NaN by weight) is 85,400 molecules of AttoPhos per minu.
